# Reference: US12472210B2 (priority 2019, dated 2025)
# Several values for one entry are separate records, joined by “and”; a condition that tells them apart may be missing. Identical values can stand only once. Like-named read-outs stand apart in the source and are kept apart here.
# What was measured:
# [1] = system: subcutaneously transplanted human liver cancer LM3 tumor; design: species or system BALB/c nude mice; conditions: mouse, in vivo
# [2] = system: subcutaneously transplanted human liver cancer LM3 tumor; design: species or system BALB/c nude mice; conditions: mouse, in vivo, ip
# [3] = mouse, in vivo
# [4] = mouse, in vivo, ip
smiles,measurement,setting,value
O=P1(N(CCCl)CCCl)NCCCO1 (centres unmarked) [cyclophosphamide],Tumor inhibition rate (%),[1],79.33% and 79.33 ± 0.10%
same,Tumor weight,[1],0.21 ± 0.10 g
same,Tumor inhibition rate (%),[2]; 10 mg/kg,33.21% and 33.21 ± 1.41%
same,Tumor weight,[2]; 10 mg/kg,0.50 ± 0.02 g
same,Tumor inhibition rate (%),[2]; 20 mg/kg,62.67% and 62.67 ± 5.81%
same,Tumor weight,[2]; 20 mg/kg,0.28 ± 0.06 g
same,Spleen quality,[3],0.12 ± 0.02 g
same,body weight at the end of the experiment,[3],18.91 ± 0.46 g
same,Spleen index,[4]; 10 mg/kg,1.08 ± 0.12 mg/g
same,Spleen quality,[4]; 10 mg/kg,0.19 ± 0.01 g
same,body weight at the end of the experiment,[4]; 10 mg/kg,18.58 ± 0.41 g
same,Spleen index,[4]; 20 mg/kg,1.01 ± 0.08 mg/g
same,Spleen quality,[4]; 20 mg/kg,0.17 ± 0.01 g
same,body weight at the end of the experiment,[4]; 20 mg/kg,17.54 ± 0.28 g
